Assay type in all cases: cell-based
Experiment [1] has as its system KRAS G12V mutant human colorectal cancer cell SW620. Put plainly: 3D cell proliferation inhibition assay, SW620. Particulars: SW-620, 168 h, 3D culture, 7 days, CTG. The procedure, abridged: (§1)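 Seven-day 3D growth at 37 °C in low-adsorption wells, 5×10^2 cells/well except MKN1 (1×10^3), final compound range 10000–0.026 nM in 0.2% DMSO. CTG luminescence read-out; percent inhibition set against DMSO and medium-only wells, IC50 by curve fitting.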

For experiment [2], the system named is KRAS G12D mutant human gastric cancer cell AGS. Put plainly: 3D cell proliferation inhibition assay, AGS. Particulars: 168 h, 3D culture, 7 days, CTG. The procedure, abridged:
as §1

For experiment [3], the target named is T1, KRAS G12V protein in SW900 cells (Homo sapiens, UniProt P01116, G12V).
T1 construct: endogenous in cells; host or cells: SW900
T1 sequence (P01116 1-188 isoform P01116-2 G12V): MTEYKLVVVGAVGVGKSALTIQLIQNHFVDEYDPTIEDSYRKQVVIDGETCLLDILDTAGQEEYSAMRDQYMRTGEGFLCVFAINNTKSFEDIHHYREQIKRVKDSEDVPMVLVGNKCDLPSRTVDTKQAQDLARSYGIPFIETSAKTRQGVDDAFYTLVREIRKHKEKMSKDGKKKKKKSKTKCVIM
Put plainly: KRAS degradation assay (Western Blot) in SW900 cells. Particulars: 24 h. The procedure, abridged: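 Degradation of KRAS measured by Western blot after 24 h exposure to compound (0.03–3000 nM final). Values are DC50 and Dmax.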
(Immunoblotting shows a protein as a band on a membrane.)

The subject of experiment [4] is KRAS G12C mutant human non-small cell lung cancer cell NCI-H358. Put plainly: 3D cell proliferation inhibition assay, NCI-H358. Particulars: NCI-H358, 168 h, 3D culture, 7 days, CTG. Summed up: as §1
The subject of experiment [5] is KRAS G12V mutant human lung squamous carcinoma cell SW900. Put plainly: 3D cell proliferation inhibition assay, SW900. Particulars: SW900, 168 h, 3D culture, 7 days, CTG.
Experiment [6] has as its system KRAS G12D mutant human metastatic pancreatic cancer cell AsPc-1. Put plainly: 3D cell proliferation inhibition assay, AsPc-1. Particulars: ASPC1, 168 h, 3D culture, 7 days, CTG. The procedure, abridged: as §1
Experiment [7] deals with KRAS G13D mutant human colorectal cancer epithelial cell DLD-1. Put plainly: 3D cell proliferation inhibition assay, DLD-1. Particulars: DLD-1, 168 h, 3D culture, 7 days, CTG. Summed up:
as §1

Experiment [8] relates to KRAS WT human gastric cancer cell MKN1. Put plainly: 3D cell proliferation inhibition assay, MKN1. Particulars: MKN-1, 168 h, 3D culture, 7 days, CTG. Summed up:
as §1

Experiment [9] relates to KRAS G12D mutant human lung cancer cell A427. Put plainly: 3D cell proliferation inhibition assay, A427. Particulars: A-427, 168 h, 3D culture, 7 days, CTG. Summed up:
as §1

A value given as a limit tells only on which side of the number the result lay.

For `CCc1cccc2cc(O)cc(-c3ncc4c(N5CCC[C@@](C)(O)C5)nc(OCC5(CN6CCN(CC7CCC8(CC7)CCN(C(=O)c7ccc(C)c(N9CCC(=O)NC9=O)c7)CC8)CC6)CC5)nc4c3F)c12` [Example 26, (R)-1-(5-(9-((4-((1-(((7-(8-ethyl-3-hydroxynaphthalen-1-yl)-8-fluoro-4-(3-hydroxy-3-methylpiperidin-1-yl)pyrido[4,3-d]pyrimidin-2-yl)oxy)methyl)cyclopropyl)methyl)piperazin-1-yl)methyl)-3-azaspiro[5.5]undecane-3-carbonyl)-2-methylphenyl)dihydropyrimidine-2,4(1H,3H)-dione], the IC50 in experiment [1] was 2.11 nM; in experiment [2], not above 50 nM; in experiment [4], 100 to 500 nM; in experiment [5] it was not above 50 nM; in experiment [6], not above 50 nM; in [7], not above 50 nM. In addition, the IC50 in experiment [8] is not above 50 nM; in [9], 100 to 500 nM. The same compound yielded a DC50 in experiment [3] not above 50 nM. Besides, in experiment [3], the Dmax was 80 to 100%.

As for `C#Cc1c(F)ccc2cc(O)cc(-c3ccc4c(N5CCC[C@@](C)(O)C5)nc(OCC5(CN6CCN(CC7CCC8(CC7)CCN(C(=O)c7ccc(Cl)c(N9CCC(=O)NC9=O)c7)CC8)CC6)CC5)nc4c3F)c12` [Example 33, (R)-1-(2-chloro-5-(9-((4-((1-(((7-(8-ethynyl-7-fluoro-3-hydroxynaphthalen-1-yl)-8-fluoro-4-(3-hydroxy-3-methylpiperidin-1-yl)quinazolin-2-yl)oxy)methyl)cyclopropyl)methyl)piperazin-1-yl)methyl)-3-azaspiro[5.5]undecane-3-carbonyl)phenyl)dihydropyrimidine-2,4(1H,3H)-dione], the IC50 in experiment [1] was 7.71 nM; in experiment [2], not above 50 nM; in experiment [4], 50 to 100 nM; in [5] it was 50 to 100 nM; in experiment [6], not above 50 nM; in experiment [7] it was not above 50 nM. The IC50 in experiment [8] was 50 to 100 nM; in experiment [9] it was not above 50 nM. Further, the DC50 in [3] was not above 50 nM. In experiment [3], this compound had a Dmax of 80 to 100%.

As to `CCc1cccc2cc(O)cc(-c3ncc4c(N5CCC[C@@](C)(O)C5)nc(OCC5(CN6CCN(CC7CCC8(CC7)CCN(C(=O)c7ccc(OC)c(N9CCC(=O)NC9=O)c7)CC8)CC6)CC5)nc4c3F)c12` [Example 25, (R)-1-(5-(9-((4-((1-(((7-(8-ethyl-3-hydroxynaphthalen-1-yl)-8-fluoro-4-(3-hydroxy-3-methylpiperidin-1-yl)pyrido[4,3-d]pyrimidin-2-yl)oxy)methyl)cyclopropyl)methyl)piperazin-1-yl)methyl)-3-azaspiro[5.5]undecane-3-carbonyl)-2-methoxyphenyl)dihydropyrimidine-2,4(1H,3H)-dione], the half-inhibitory concentration (IC50) was 2.45 nM in [1]; not above 50 nM in experiment [2]; 100 to 500 nM in experiment [4]; not above 50 nM in [5]; not above 50 nM in [6]; not above 50 nM in experiment [7]. For the same compound, the IC50 in [8] was not above 50 nM; in experiment [9], 100 to 500 nM. In addition, the DC50 in experiment [3] is not above 50 nM. Besides, in [3], the Dmax lay within 80 to 100%.

As to `C#Cc1c(F)ccc2cc(O)cc(-c3ncc4c(N5CCC[C@@](C)(O)C5)nc(OCC5(CN6CCN(CCC7CCC8(CC7)CCN(C(=O)c7ccc(Cl)c(N9CCC(=O)NC9=O)c7)CC8)CC6)CC5)nc4c3F)c12` [Example 9, (R)-1-(2-chloro-5-(9-(2-(4-((1-(((7-(8-ethynyl-7-fluoro-3-hydroxynaphthalen-1-yl)-8-fluoro-4-(3-hydroxy-3-methylpiperidin-1-yl)pyrido[4,3-d]pyrimidin-2-yl)oxy)methyl)cyclopropyl)methyl)piperazin-1-yl)ethyl)-3-azaspiro[5.5]undecane-3-carbonyl)phenyl)dihydropyrimidine-2,4(1H,3H)-dione], the IC50 was not above 50 nM in [2]; not above 50 nM in experiment [4]; not above 50 nM in [5]; 50 to 100 nM in experiment [6]; not above 50 nM in experiment [7]; not above 50 nM in experiment [8]. Moreover, in experiment [9], the IC50 was not above 50 nM. The compound also showed a DC50 in experiment [3] not above 50 nM. For the same compound, the Dmax in experiment [3] lay within 80 to 100%.

Take `CCc1c(F)ccc2cc(O)cc(-c3ncc4c(N5CCC[C@@](C)(O)C5)nc(OCC5(CN6CCN(CC7CCC8(CC7)CCN(C(=O)c7ccc(C)c(N9CCC(=O)NC9=O)c7)CC8)CC6)CC5)nc4c3F)c12` [Example 19, (R)-1-(5-(9-((4-((1-(((7-(8-ethyl-7-fluoro-3-hydroxynaphthalen-1-yl)-8-fluoro-4-(3-hydroxy-3-methylpiperidin-1-yl)pyrido[4,3-d]pyrimidin-2-yl)oxy)methyl)cyclopropyl)methyl)piperazin-1-yl)methyl)-3-azaspiro[5.5]undecane-3-carbonyl)-2-methylphenyl)dihydropyrimidine-2,4(1H,3H)-dione]: the IC50 in [1] is 0.82 nM; in experiment [2] it was not above 50 nM; in [4], not above 50 nM; in experiment [5], not above 50 nM; in [6] it was not above 50 nM; in [7], not above 50 nM. In addition, the IC50 in [8] is not above 50 nM; in [9], 100 to 500 nM. Also, the DC50 in experiment [3] is not above 50 nM. For the same compound, the Dmax in experiment [3] fell in the range of 80 to 100%.

Consider `C#Cc1c(F)ccc2cc(O)cc(-c3ncc4c(N5CCCOCC5)nc(OCC5(CN6CCN(CC7CCC8(CC7)CCN(C(=O)c7ccc(C)c(N9CCC(=O)NC9=O)c7)CC8)CC6)CC5)nc4c3F)c12` [Example 36, 1-(5-(9-((4-((1-(((7-(8-ethynyl-7-fluoro-3-hydroxynaphthalen-1-yl)-8-fluoro-4-(1,4-oxazepan-4-yl)pyrido[4,3-d]pyrimidin-2-yl)oxy)methyl)cyclopropyl)methyl)piperazin-1-yl)methyl)-3-azaspiro[5.5]undecane-3-carbonyl)-2-methylphenyl)dihydropyrimidine-2,4(1H,3H)-dione], for which the IC50 in experiment [1] is 3.36 nM; in experiment [2], not above 50 nM; in experiment [4] it was 50 to 100 nM; in experiment [5] it was not above 50 nM; in experiment [6], not above 50 nM; in [7], not above 50 nM. In addition, the results for the IC50 in experiment [8] and in [9] were not above 50 nM and 50 to 100 nM, respectively. For the same compound, the DC50 in [3] is not above 50 nM. The maximal degradation (Dmax) in experiment [3] was 80 to 100%.

What is called IC50 is the concentration needed to halve the response being measured. By DC50 is commonly meant the midpoint of the concentration-degradation curve. A lower DC50 goes with a more potent degrader. As a reminder, the Dmax is the largest share of the target that was removed. The low end stands for shallow degradation, the high end for deep degradation.
